The values that follow are results of earlier work, collected in patent US4390710A, “Catalyst system for manufacturing p-chlorophenyl-N-methyl carbamate” (PPG Industries, Inc., priority 1981, dated 1983).

The conditions of the data set: organic herbicides such as isopropyl-N-(3-chlorophenyl) carbamate and isopropyl-N-phenyl carbamate.

Turning to `CNC(=O)Oc1ccc(Cl)cc1` [p-chlorophenyl-N-methyl carbamate], the “extending the soil life of organic herbicides” value was “capable of extending the soil life of many organic herbicides”.
